A short description of data set [1]: TD 50 - Neurotoxicity, rotating rod. As to conditions: in vivo, ip, mouse, intraperitoneal. More on the design: species or system mouse (male Carworth Farms Mice). The method, then: TD 50: is the ED 50 for the behavior of the mouse on the experimental
model of the rotating rod in mg/kg with intraperitoneal application. The
TD 50 is a measure for the undesired neurotoxic side effect.
(§1) All experiments were carried out with male Carworth Farms Mice.
(§2) The materials were tested in three dosages (30, 100, 300 mg/kg) (600 mg/kg was co-tested if a sufficient amount of the material was present). The materials in each case were dissolved in 30% aqueous polyethylene glycol solution.
The test on the rotating rod was referred to for the evaluation of the neurotoxicity. The animals were placed on a rotating (6 rotations per minute) plastic rod having a diameter of 2.54 cm. […] An animal was characterized as neurologically toxic if it fell from the rotating rod within one minute.
number of animals which fell/total number of test animals

The nature of data set [2]: MES - Maximum Electroshock Attack Test (anticonvulsive action, intraperitoneal). Type of data set: in vivo, mouse (male Carworth Farms Mice). Particulars: in vivo, ip; mouse, intraperitoneal; number below the slanting line; read-out: quotient TD 50/ED 50 (MES), therapeutic breadth. The method, then: as §1, §2
(§3) A maximum electroshock attack was obtained through alternating current (60 Hz, 50 m A intensity) with which the mouse was irritated for 0.2 seconds via corneal electrodes. A 5-7 times weaker intensity of irritation was sufficient to produce a minimum electroshock-attack. One drop of 0.9% aqueous NaCl solution was given before applying the electrodes into the eyes in order to guard against killing the animals. The test substances were dispersed intraperitoneally before the irritation. […] the tonic stretching components of the attack (rear extremities) was regarded as protective action. The results were represented as follows:
(§4) number of animals having protective action/total number of test animals

Data set [3] has as its system mouse. Described as above. Type of data set: in vivo, mouse (male Carworth Farms Mice). Particulars: ip, read-out: Maximum Electro-Shock (MES) ED 50. The method, then:
as §1, §2, §3, §4

Data set [4] is described as follows: Oral acute toxicity (LD 50) according to Miller & Tainter. Particulars: in vivo, mouse, per os, observation time 24 hours. The arrangement: species or system white mouse. The method, then:
Examples for the toxicity on the mouse per se (expressed as LD 50 in mg/kg are as follows: […]
The determination of the oral toxicity on the white mouse was carried out in the international procedure according to Miller & Tainter (Proc. Soc., Exper. Biol. a Med. Vol. 57, page 261 et. seq. (1944)) with an observation time of 24 hours. The toxicity was stated as LD 50 in mg/kg.

The nature of data set [5]: s.c. Met - Subcutaneous Pentetrazole (Metrazole) Test (anticonvulsive action, intraperitoneal). Type of data set: in vivo, mouse (male Carworth Farms Mice). Particulars: in vivo, ip; mouse, intraperitoneal; number below the slanting line; read-out: quotient TD 50/ED 50 (MET), therapeutic breadth. The method, then:
as §1, §2
(§5) The absence of a clearly noticeable attack, (single occurrence of a […] spasm lasting 5 seconds) based on the previous intraperitoneal application of the test substances evaluated as protective action (the test substances were applied intraperitoneally before the application of pentetrazole). The results were represented as follows: number of animals having protective action/total number of test animals

For data set [6], the system named is mouse. Described as above. The data set is classed as in vivo, mouse (male Carworth Farms Mice). As to conditions: ip, read-out: Metrazole-Test (MET) ED 50. Here is the method:
as §1, §2, §5

Usually TD50 stands for the dose at which the toxic effect under study appears in half of the subjects. A low value points to greater toxicity. For orientation: LD50 means the dose expected to kill half of the subjects tested. Low readings indicate greater toxicity, high ones lower toxicity. As to `CCOC(=O)Nc1ccc(NCc2ccc(Cl)cc2)nc1N.Cl` [D 9389, 2-amino-3-carbethoxyamino-6-(4-chlorobenzylamino)-pyridine-hydrochloride], in data set [1], the TD50 was found to be 23.9 mg/kg. Besides, the figures for the selectivity ratio in data set [2] and in data set [5] were 1.64 and 2.39, respectively. The ED50 with mouse [3] (Mus musculus) was 14.6 mg/kg; with mouse [6] (Mus musculus), 10 mg/kg. Further, in data set [4], the LD50 at 24 h is 1250 to 1500 mg/kg.

Consider `CCOC(=O)Nc1ccc(NCc2ccc(C(F)(F)F)cc2)nc1N.Cl` [D 11 208, 2-amino-3-carbethoxyamino-6-(4-trifluoromethyl-benzylamino)-pyridine-hydrochloride], for which the TD50 in data set [1] came to 76.3 mg/kg. Besides, the selectivity ratio stood at 2.73 in data set [2] and 6.81 in data set [5]. The ED50 stood at 27.9 mg/kg in the data set on mouse [3] (Mus musculus) and 11.2 mg/kg with mouse [6] (Mus musculus).

The compound `CC(=O)Nc1ccc(NCc2ccc(F)cc2)nc1N.Cl` [D 13 223, 2-amino-3-acetamino-6-(4-fluoro-benzylamino)-pyridine-hydrochloride] registered a TD50 in data set [1] of 201 mg/kg. The selectivity ratio amounted to 2.38 in data set [2] and 2.14 in data set [5]. Besides, the ED50 was 84.3 mg/kg with mouse [3] (Mus musculus) and 93.8 mg/kg with mouse [6] (Mus musculus).

The compound `CCOC(=O)Nc1ccc(NCc2ccc(C(C)=O)cc2)nc1N` [D 10 558, 2-amino-3-carbethoxyamino-6-(4-methylcarbonyl-benzylamino)-pyridine] came in with a TD50 in data set [1] of 73.9 mg/kg. The selectivity ratio in data set [2] is 1.37; in data set [5], 4. The ED50 was 53.8 mg/kg with mouse [3] (Mus musculus) and 18.4 mg/kg with mouse [6] (Mus musculus).

For `CCOC(=O)Nc1ccc(NCc2ccc(F)cc2)nc1N.Cl` [D 9998, 2-amino-3-carbethoxyamino-6-(4-fluorobenzylamino)-pyridine-hydrochloride], the TD50 in data set [1] worked out at 37.7 mg/kg. In addition, the selectivity ratio was 1.67 in data set [2] and 1.86 in data set [5]. The ED50 in the data set with mouse [3] (mouse, intraperitoneal) came out at 22.5 mg/kg; in the data set on mouse [6] (mouse, intraperitoneal, s.c. pentetrazole 85 mg/kg), 20.3 mg/kg. This compound also gave an LD50 at 24 h in data set [4] of 617 mg/kg.

As to `CCOC(=O)Nc1ccc(NCc2c(C)cc(C)cc2C)nc1N.Cl` [D 10 328, 2-amino-3-carbethoxyamino-6-(2,4,6-trimethyl-benzylamino)pyridine-hydrochloride], the TD50 in data set [1] came to 1.09 mg/kg. Further, the selectivity ratio is 0.55 in data set [2] and 1.08 in data set [5]. The values for the ED50 in the data set on mouse [3] (Mus musculus) and with mouse [6] (Mus musculus) were 1.97 mg/kg and 1.01 mg/kg, respectively. This compound also came in with an LD50 at 24 h in data set [4] of 127 mg/kg.

`CCOC(=O)Nc1ccc(NCc2ccc(NC(C)=O)cc2)nc1N.Cl` [D 9663, 2-amino-3-carbethoxyamino-6-(4-methylcarbonylamino-benzylamino)-pyridine-hydrochloride] came in with a TD50 in data set [1] of 142 mg/kg. For the same compound, the selectivity ratio in data set [2] came to 1.15; in data set [5] it was 2.49. In addition, the ED50 was determined as 124 mg/kg with mouse [3] (Mus musculus) and 57.2 mg/kg with mouse [6] (Mus musculus).

`CCOC(=O)Nc1ccc(NCc2ccccc2)nc1N.Cl` [D 7175, 2-amino-3-carbethoxyamino-6-benzylamino-pyridine-hydrochloride] gave a TD50 in data set [1] of 45.6 mg/kg. Further, the selectivity ratio in data set [2] came out at 2.3; in data set [5] it was 4.8. For the same compound, the ED50 in the data set on mouse [3] (Mus musculus) amounted to 19.7 mg/kg; in the data set on mouse [6] (Mus musculus), 9.46 mg/kg. The LD50 at 24 h in data set [4] amounted to 402 mg/kg.

In the case of `CCOC(=O)Nc1ccc(NCc2cccc(F)c2)nc1N.Cl` [D 10 981, 2-amino-3-carbethoxyamino-6-(3-fluorobenzylamino)-pyridine-hydrochloride], the TD50 in data set [1] was determined as 32.7 mg/kg. Moreover, the selectivity ratio in data set [2] is 1.9; in data set [5], 3.61. The ED50 in the data set with mouse [3] (Mus musculus) stood at 17.2 mg/kg; in the data set on mouse [6] (Mus musculus), 9.07 mg/kg. Besides, the LD50 at 24 h in data set [4] turned out to be 2060 mg/kg.

As for `CCOC(=O)Nc1ccc(NCc2ccc(S(N)(=O)=O)cc2)nc1N` [D 9805, 2-amino-3-carbethoxyamino-6-(4-aminosulfonyl-benzylamino)-pyridine], the TD50 in data set [1] was 530 mg/kg. Also, the selectivity ratio in data set [2] came out at 4.9; in data set [5], 0.96. Besides, the figures for the ED50 in the data set with mouse [3] (Mus musculus) and in the data set with mouse [6] (Mus musculus) were 108 mg/kg and 550 mg/kg, respectively.

Values taken from patent US4554281A, “2-Amino-3-acylamino-6-benzylamino-pyridine-derivative having antiepileptic action” (priority 1982, dated 1985).
